# Laboratory results published in patent US12201598B2, “Immunoregulatory microparticles for modulating inflammatory arthritides” (The Regents of the University of California, priority 2021, dated 2025).
# Key:
# rodents = conditions: cited from earlier work
# Naïve SKG CD4+ T cells = assay: ex vivo Th17 differentiation assay in Th17 inflammatory conditions; assay type: cell-based, mouse; conditions: for FoxP3 expression in CD4+ T cells: Th17 polarizing cytokines, four days
# Description: To test the effect of ATRA on enhancing Treg cells, an ex vivo differentiation and stabilization assay in Th17 inflammatory conditions using cytokine supplementation was performed (FIG. 1A). Naïve SKG CD4+ T cells were isolated to consistently obtain greater than 90% CD4+CD44−CD62L+ post-enrichment (data not shown). Subsequently, these cells were stimulated with anti-mouse CD3 (αCD3) and CD28 (αCD28) antibodies along with Th17 polarizing cytokines IL-6, TGF-β1, IL-1β, and IL-23, and immunophenotypes were analyzed after four days. In a subset of conditions, ATRA was added to the T cell culture medium, ranging from 10 pM to 10 nM. […] In addition to reduced expression of IL-17A, the fraction of RORγt+CD4+ T cells was reduced in 1 nM ATRA conditions (53.3±7.9%) relative to cells exposed 0 nM ATRA (73.3±3.9%) (FIG. 1D).
# (§1) The bioactivity of released ATRA was assessed following the experimental schematic outlined in FIG. 1A with supernatant collected at day 1, 14 and 28 and replicates diluted to the expected joint concentration based on delivery of 2 μg ATRA-encapsulated PLGA MPs injected in ˜20 μL of synovial fluid.
# SKG FoxP3eGFP Treg cells = assay: Treg cell stability (destabilization) assay; assay type: cell-based, mouse; conditions: 1 nM ATRA, IL6, 72 hours
# Description: The loss of FoxP3 expression correlated with Treg cell transitioning to a Th17-like exTreg cell phenotype, with 23.0±1.7% and 13.3±1.5% of cells without ATRA expressing RORγt and IL-17, respectively, compared to 11.6±1.8% and 5.7±1.1% of cells cultured with 1 nM ATRA (FIGS. 1G and H).
# as §1
# CD4+ T cells = assay: 24-hour pretreatment then transfer to Th17 inducing conditions; assay type: cell-based; conditions: 24-hour pretreatment 1 nM ATRA, washed
# Description: FIG. 10A depicts the quantification of FOXP3 expression in CD4+ T cells after 24-hour pretreatment with either nothing (None), 1 nM ATRA (ATRA), or IL-2, followed by removal and washing of the cells, and transfer to Th17 inducing conditions. FIG. 10B depicts quantification of IL-17 expression in CD4+ T cells after a 24-hour pretreatment with either nothing (None), 1 nM ATRA (ATRA), or IL-2, followed by removal and washing of the cells, and transfer to Th17 inducing conditions. Pre-treatment of the CD4+ T cells with ATRA increases FOXP3 expression and reduces IL-17 expression after exposure to Th17 inducing conditions.
# [1] = tested on: chromatin of cells cultured in Th17 inducing conditions; assay: Assay for Transposase Accessible Chromatin (ATAC) sequencing; assay type: cell-based
# Description: Assay for Transposase Accessible Chromatin (ATAC) sequencing assay uses a hyperactive protein to bind and snip DNA in open chromatin regions to probe for the parts of DNA are accessible for transcription. The ATAC assay was performed to determine whether ATRA causes epigenetic modifications to cellular DNA to influence the accessibly of DNA for transcription and, in turn, modulating what a cell's “default” state/programs are. Quantification of differentially accessible regions (DARs) is shown by counts per peak between cells cultured in Th17 inducing conditions with (ATRA Treated) or without (Th17 Control) 1 nM ATRA. (FIG. 11A).
# FIG. 11C is a heatmap of all DARs grouped in rows by those enriched in the ATRA treated group or those enriched in the Tb17 Control group. Heatmapping was performed by determining the z-score of the DAR in a given sample as compared to the row. A Genome browser plot for Th17 and Treg associated genes is shown (FIG. 11D). The size of the peaks corresponds to the number of reads, so the bigger the peaks are the more accessible that region of DNA is.
# [2] = tested on: healthy C57BL/6J (B6) mice; assay: OVA immunization in healthy C57BL/6J mice; assay type: in vivo, mouse; conditions: spleen; daily i.p. administration
# Text: To quantify the effect of IA ATRA-encapsulated PLGA MPs on arthritis-irrelevant T cell suppression we leveraged OVA-specific tetramers available for quantifying T cells in H2b-background mice and conducted the aforementioned immunization study in healthy C57BL/6J (B6) mice (FIG. 8D). Systemically administered ATRA was delivered as a daily intraperitoneal (i.p.) injection to assess the effect of systemic exposure.
# arthritic SKG mice = assay: subcutaneous administration to arthritic SKG mice; assay type: in vivo, mouse; conditions: subcutaneously between the scapula
# Description: The efficacy of subcutaneously administered ATRA-encapsulated PLGA MPS in treating SKG mice was assessed to determine whether ATRA-encapsulated PLGA MPS act via systemic release, in which case subcutaneous ATRA-encapsulated PLGA MPS treatment would improve disease scores, or if ATRA-encapsulated PLGA MPS treatment acts locally, in which case its delivery to the intra-articular space would improve disease scores. ATRA-encapsulated PLGA MPS, dose-matched Bolus ATRA in corn oil, and vehicle (corn oil) were administered to arthritic SKG subcutaneously between the scapula of SKG mice (FIGS. 9A-B).
# [3] = tested on: SKG mice with mannan-induced arthritis; assay: IA treatment of established SKG arthritis (clinical score, ankle thickness); assay type: in vivo, mouse
# Description: To assess the feasibility of modulating established SKG arthritis. ATRA-encapsulated PLGA MPs were injected into the tibial/tarsal ankle joint of ten SKG mice with middle stage arthritis, prior to the development of severe symptoms. PLGA-Blank MPs were injected into the tibial/tarsal ankle joint of eleven SKG mice with middle stage arthritis. Arthritis onset was synchronized using inter-peritoneal (IP) mannan injection. ATRA-encapsulated PLGA MPs treatment was administered after 14 days, corresponding to established SKG arthritis (FIG. 3A). To track MP degradation in vivo, cyanine-5 (Cy5) conjugated PLGA was incorporated to generate fluorescently labeled Cy5 PLGA MPs and PLGA MPs without ATRA (PLGA-Blank MPs). The PLGA-Blank MPs were imaged using a live animal. In Vivo Imaging System (IVIS). […] Based on fluorescence attenuation, MPs remained localized in the joint after injection and steadily degraded over the course of the study (FIG. 3B). Arthritis progression was quantified using bi-weekly clinical scoring between the treatment groups. […] The improvement in clinical score and ankle thickness measurements were quantified in both the ipsilateral and contralateral joints in the above described studies (FIG. 3H-J, FIGS. 6B and C).
smiles,measurement,setting,value
"CC1=C(/C=C/C(C)=C/C=C/C(C)=C/C(=O)O)C(C)(C)CCC1 [ATRA, all-trans retinoic acid]",doses associated with toxicity,rodents,> 14 mg/kg
same,fraction of IL-17A+CD4+ T cells,Naïve SKG CD4+ T cells; 10 pM ATRA,9.5±1.7%
same,fraction of IL-17A+CD4+ T cells,Naïve SKG CD4+ T cells; 100 pM ATRA,7.2±1.5%
same,fraction of IL-17A+CD4+ T cells,Naïve SKG CD4+ T cells; 1 nM ATRA,5.4±1.9%
same,fraction of RORγt+CD4+ T cells,Naïve SKG CD4+ T cells; 1 nM ATRA,53.3±7.9%
same,fraction of IL-17A+CD4+ T cells,Naïve SKG CD4+ T cells; 10 nM ATRA,5.4±2.3%
same,FoxP3 expression in CD4+ T cells,Naïve SKG CD4+ T cells; ATRA above 100 pM,40.0±3.4%
same,FoxP3 expression in CD4+ T cells,Naïve SKG CD4+ T cells; ATRA below 100 pM,11.2±2.3%
same,cells expressing IL-17,SKG FoxP3eGFP Treg cells,5.7±1.1%
same,cells expressing RORγt,SKG FoxP3eGFP Treg cells,11.6±1.8%
same,cells retaining FoxP3eGFP expression,SKG FoxP3eGFP Treg cells,71.6±5.5%
same,FOXP3 expression,CD4+ T cells,increases
same,IL-17 expression,CD4+ T cells,reduces
same,regions in the DNA more open in the ATRA treated cells,[1]; 1 nM ATRA versus Th17 control,7957
same,accessibility of FoxP3 locus,"[1]; 1 nM ATRA, genome browser plot",promotes accessibility
same,regions in the DNA more open in the Th17 control,[1]; Th17 control versus 1 nM ATRA,10316
same,OVA-specific CD4+ T cells (tetramer staining),[2],significantly lower
"CC1=C(/C=C/C(C)=C/C=C/C(C)=C/C(=O)O)C(C)(C)CCC1 [bolus ATRA, all-trans retinoic acid]",ankle swelling,arthritic SKG mice,Neither bolus ATRA nor ATRA-encapsulated PLGA MPs provided improvement
same,clinical score,arthritic SKG mice,Neither bolus ATRA nor ATRA-encapsulated PLGA MPs provided improvement
same,severity of arthritis / clinical benefit,[3]; 2 μg IA MPs versus dose-matched IA bolus,no clinical benefit
same,clinical scores in ipsilateral and contralateral ankles,[3]; dose-matched IA bolus in corn oil,increased comparably
